Measurements from patent US20100035822A1, “PROLINE-RICH PEPTIDES, PHARMACEUTICAL COMPOSITION, USE OF ONE OR MORE PEPTIDES AND METHOD OF TREATMENT” (priority 2006, published 2010).
“Also recorded” adds a separate entry of the source.

Tested on: SK-N-AS cells (human neuroblastoma)
Assay: Free intracellular Ca2+ concentration in SK-N-AS cells (fluo-3 AM, confocal microscopy)
Format: cell-based
Details: 1 μM
Description: In these experiments the variation in free intracellular calcium [Ca^2+]i concentration was measured in SK-N-AS cells (human neuroblastoma, ATCC No. CRL-2137) after addition of 1 μmolar of peptides SEQ ID NO 1 or SEQ ID NO 8, or of 1 μmolar captopril. Cells were kept in DMEM (Dulbecco Modified Medium), supplemented with 10% fetal bovine serum (FBS) and 1% non-essential amino acids, at 5% CO2 atmosphere, at 37° C., and 95% relative humidity. Cells were treated with trypsin, and replicated at adequate cell concentrations.
Measurements of variation in the concentration of free [Ca^2+]i were performed with a confocal microscope LSM 510 (Zeiss, Jena, Germany), as described by Martins et al., (Martins et al., Neuronal differentiation of P19 embryonal carcinoma cells modulates kinin B2 receptor gene expression and function. J. Biol. Chem. 280: 19576-19586, 2005). Approximately 5×10^4 SK-N-AS cells were plated on 60 mm plates 24 hours prior to measurement, and then treated with 4 μM fluo-3 AM (Invitrogen Corporation) in 0.5% DMSO and 0.1% non-ionic surfactant pluronic acid F-127 for 30 minutes at 37° C. Cells were washed with DMEM containing 10% FBS, and transferred to defined medium (5 μg/ml insulin, 30 μg/ml transferrin, 20 μM ethanolamine, 30 nM sodium selenite, 1 μM sodium pyruvate, 1% non-essential amino acids, 1 mM glutamine, 100 μg/ml penicillin, 100 μg/ml streptomycin, 10 mM HEPES pH 7.4 in DMEM). The fluorescent fluo-3 AM was excited at 488 nm, and the fluorescence measured at 526 nm.
Variations in the [Ca^2+]i were measured in non-stimulated cells, and in cells stimulated with peptides SEQ ID NO 1 or SEQ ID NO 8, or with captopril (Sigma Aldrich). Increase of fluorescence was monitored for 2 minutes, and images were acquired in 256×256 pixels every second. At the end of each experiment, 5 μM ionophore (4-Br-A23187) were added, followed by 10 mM EGTA, or 20 μM digitonin to determine maximum and minimum fluorescence, Fmax and Fmin respectively, as described by Grynkiewicz et al., (1985).
Intracellular calcium concentrations [Ca^2+]i, related to fluorescence (F) values obtained after addition of peptides SEQ ID NO 1 or SEQ ID NO 8, were calculated with the equation: [Ca^2+]=Kd(F−Fmin)/(Fmax−F), assuming Kd=450 nM for fluo-3 AM (Hallett et al., 1990).

Row | Molecule | change of intracellular [Ca2+]i
1 | <ENWPHPQIPP [SEQ ID NO 8] | Increase
2 | CC(CS)C(=O)N1CCC[C@@H]1C(=O)O (stereo partly drawn) [captopril, D-3-mercapto-2-methyl-1-oxopropyl-L-proline, reference compound] | no change; also recorded: did not cause any change
